Oligonucleotides are written 5' to 3', each unit as a sugar letter and its base; * is a phosphorothioate linkage, no mark a phosphodiester; rarer units and linkages stand in square brackets, end groups in braces. Plain capitals give the bases only. d = 2'-deoxy (DNA)
What was measured:
Format in all cases: cell-based, human
[1] = test system: T24 bladder cell carcinoma; assay: Relative colony forming efficiency (Example 17, Table 13); conditions: averages of 2-8 determinations
In short: (§1)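 0.2 μM oligo (default) + 2.5 μg Lipofectin, 4 h exposure; methylene blue stain, colonies counted; vs lipofectin-alone control, reported as % inhibition.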

A549 lung cell carcinoma = assay: as above; conditions: averages of 2-8 determinations
In short: as §1

[2] = test system: HepG2 hepatocellular carcinoma; assay: as above; conditions: averages of 2-8 determinations
In short: as §1

[3] = test system: MDA-MB-231 breast cell adenocarcinoma; assay: as above; conditions: averages of 2-8 determinations
In short: as §1

[4] = test system: PC-3 prostrate cell adenocarcinoma; assay: as above; conditions: averages of 2-8 determinations
In short: as §1

Hela S3 cells = assay: Relative colony forming efficiency, lipofectin +/- oligonucleotide 4 hours; conditions: Hela S3 cervix carcinoma cells; averages of 2-8 determinations
Protocol: Colony forming efficiency was determined using standard protocols. Briefly, the cells were cultured for 24 hours at 37° C. in growth medium with 10% fetal bovine serum. The cells were washed in 5 ml phosphate buffered saline, pH 7.2, once prior to lipofectin +/−oligonucleotide treatment.
The test oligonucleotides were added to cell cultures in the presence of 2.5 μg of DOTMA/DOPE (Lipofectin; Life Technologies, Inc.) for four hours. The oligonucleotide was tested at 0.2 μM unless otherwise indicated. Controls were the cultures treated with lipofectin but without the oligonucleotide. After 4 hours the medium containing the oligonucleotide was removed and washed with 5 ml of growth medium. The cells were then cultured in growth medium containing 10% fetal bovine serum for seven to ten days. Surviving cells were visualized by methylene blue staining, and colonies were scored. In some experiments cell aliquots were removed from the culture and viability was determined using the trypan blue exclusion test. Results were analyzed as percent of surviving cells compared to control cells.
AS-II-336-20 was tested for the ability to inhibit the proliferation of human tumour cells (Hela). Hela S3 cells (American Type Culture Collection, Rockville, Md., ATCC), and a Hela cell line (Hela 1 mM) previously selected for resistance to the antitumour agent, hydroxyurea, were tested (see results in Table 11). Two experiments were undertaken with Hela S3 cells. […] The same experiment was repeated with the Hela 1 mM cell line and with varying concentrations of the antisense construct AS-II-336-20 (see results in Table 11) with similar results, […] was an effective concentration for inhibiting colony formation.
To test the antisense effects of many of these sequences as phosphorthioate deoxyribonucleotides, they were examined in relative colony forming experiments conducted as described in Example 16 with a series of human tumour cell lines. The results (shown as % inhibition of colony forming ability) obtained with cancer cells derived from the bladder, breast, lung, colon, pancreas, prostate, liver and cervix, are shown in Table 13. The specific cell lines employed are as follows:
T24=bladder cell carcinoma HCT116=colon cell carcinoma A549=lung cell carcinoma MDA-MB-231=breast cell adenocarcinoma […]=pancreatic cell carcinoma PC-3=prostrate cell adenocarcinoma HepG2=hepatocellular carcinoma HeLaS3=cells isolated from a carcinoma of the cervix T-47D=breast ductal carcinoma H596=lung adenosquamous carcinoma cells Colo320=colon cell adenocarcinoma

[5] = test system: MDA PaCa-2 pancreatic cell carcinoma; assay: Relative colony forming efficiency (Example 17, Table 13); conditions: MIA PaCa-2 pancreatic cell carcinoma; averages of 2-8 determinations
In short: as §1

[6] = test system: HCT116 colon cell carcinoma; assay: as above; conditions: averages of 2-8 determinations
In short: as §1

| Substance | Reduced relative colony forming efficiency, T24 (% inhibition of colony forming ability) [1] [%] | Reduced relative colony forming efficiency, A549 (% inhibition of colony forming ability) (A549 lung cell carcinoma) [%] | Reduced relative colony forming efficiency, HepG2 (% inhibition of colony forming ability) [2] [%] | Reduced relative colony forming efficiency, MDA-MB-231 (% inhibition of colony forming ability) [3] [%] | Reduced relative colony forming efficiency, PC-3 (% inhibition of colony forming ability) [4] [%] | Reduced relative colony forming efficiency, Hela S3 (% inhibition of colony forming ability) (Hela S3 cells) [%] | Reduced relative colony forming efficiency, MIA PaCa-2 (% inhibition of colony forming ability) [5] [%] | Reduced relative colony forming efficiency, HCT116 (% inhibition of colony forming ability) [6] [%] |
| --- | --- | --- | --- | --- | --- | --- | --- | --- |
| AACTTCTTGGCTAAATCGCT (antisense dA*dA*dC*dT*dT*dC*dT*dT*dG*dG*dC*dT*dA*dA*dA*dT*dC*dG*dC*dT) [AS-II-634-20] | 83.52 | 57.76 | 95.78 | 92.44 | 77.86 | 48.94 | – | – |
| GAACATCAGGCAAGCAAAAT (antisense dG*dA*dA*dC*dA*dT*dC*dA*dG*dG*dC*dA*dA*dG*dC*dA*dA*dA*dA*dT) [AS-II-1006-20] | 61.49 | 61.62 | 89.31 | – | 92.58 | 41.79 | 47.93 | 45.56 |
| ATAAAGTCAAATGGGTTCTC (antisense dA*dT*dA*dA*dA*dG*dT*dC*dA*dA*dA*dT*dG*dG*dG*dT*dT*dC*dT*dC) [AS-II-1224-20] | 38.31 | 55.06 | 76.05 | – | 80.66 | 14.8 | 17.22 | 41.78 |
| TTAGTCTTTCCTTCCAGTGA (antisense dT*dT*dA*dG*dT*dC*dT*dT*dT*dC*dC*dT*dT*dC*dC*dA*dG*dT*dG*dA) [AS-II-1254-20] | 41.53 | 36.74 | 83.28 | – | 73.31 | 7.64 | 3.32 | 28.54 |
| GGTTTTCTCTCAGCAGCGGC (antisense dG*dG*dT*dT*dT*dT*dC*dT*dC*dT*dC*dA*dG*dC*dA*dG*dC*dG*dG*dC) [AS-II-404-20] | 84.26 | 52.17 | 84.79 | 85.83 | 77.08 | 58.37 | 17.84 | – |
| AS-II-114420 (antisense dG*dT*dA*dT*dT*dG*dC*dT*dT*dC*dA*dT*dT*dA*dG*dA*dG*dT*dG*dC) | 62.9 | 61.81 | 92.17 | – | 30.21 | 50.57 | 46.39 | 54.25 |
| GCAAAGAAAGCCAGAACATG (antisense dG*dC*dA*dA*dA*dG*dA*dA*dA*dG*dC*dC*dA*dG*dA*dA*dC*dA*dT*dG) [AS-II-579-20] | 76.68 | 95.49 | 94.28 | 66.89 | 88.16 | – | 97.55 | 69.08 |
| GGCATCAGTCCTCGTTTCTT (antisense dG*dG*dC*dA*dT*dC*dA*dG*dT*dC*dC*dT*dC*dG*dT*dT*dT*dC*dT*dT) [AS-II-933-20] | 64.84 | 53.52 | – | 64.39 | 36.91 | 26.86 | 35.68 | 67.24 |
| GGAAGATGACAAAGCGGCGG (antisense dG*dG*dA*dA*dG*dA*dT*dG*dA*dC*dA*dA*dA*dG*dC*dG*dG*dC*dG*dG) [AS-II-425-20] | 90.37 | 57.38 | 97.89 | 89.75 | 75.65 | 63.09 | 65.2 | – |
| TTAGAAGTCAGCATCCAAGG (antisense dT*dT*dA*dG*dA*dA*dG*dT*dC*dA*dG*dC*dA*dT*dC*dC*dA*dA*dG*dG) [AS-II-1345-20] | 51.26 | 73.1 | 75.42 | 94.11 | 89.58 | – | 77.39 | 65.7 |
| GAGAAATAAAATGAAACGGC (antisense dG*dA*dG*dA*dA*dA*dT*dA*dA*dA*dA*dT*dG*dA*dA*dA*dC*dG*dG*dC) [AS-II-2164-20] | 61.84 | 91.15 | 93.07 | 69.03 | 83.36 | – | 89.36 | 50.08 |
| TCGCTCCACCAAGTTTTCAT (antisense dT*dC*dG*dC*dT*dC*dC*dA*dC*dC*dA*dA*dG*dT*dT*dT*dT*dC*dA*dT) [AS-II-619-20] | 86.3 | 65.67 | 92.02 | 91.08 | 88.01 | 31.22 | 39.83 | – |

— US20080311126A1, “Antisense Oligonucleotides Directed to Ribonucleotide Reducatase R2 and Uses Thereof in Combination Therapies for the Treatment of Cancer” (Genesense Technologies, Inc, priority 2004, published 2008)
